Assay results: article PMC5588548, “Suramin Inhibits Osteoarthritic Cartilage Degradation by Increasing Extracellular Levels of Chondroprotective Tissue Inhibitor of Metalloproteinases 3” (Molecular Pharmacology, 2017)
≈ marks a conversion by molar mass, not a printed value.

What was measured:
[1] = target: T1, human TIMP-3 (Homo sapiens, UniProt P35625); assay: Solid-phase binding of TIMP-3 to immobilized suramin or analogs (ELISA); settings: TIMP-3 0.4–50 nM
T1 construct: made in house; host or cells: human embryonic kidney 293 cells
T1 sequence (P35625 24-211): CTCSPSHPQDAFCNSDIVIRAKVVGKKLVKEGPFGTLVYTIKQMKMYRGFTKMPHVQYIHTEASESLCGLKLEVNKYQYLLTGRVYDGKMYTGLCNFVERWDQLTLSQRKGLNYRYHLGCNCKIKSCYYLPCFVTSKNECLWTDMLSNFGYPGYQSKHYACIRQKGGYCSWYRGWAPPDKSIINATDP
Experimental: Glycosaminoglycan-binding ELISA plates (BD Life Sciences, Swindon, UK) were coated with suramin or its analogs (10 µg/ml in Tris-buffered saline, 18 hours, 25°C) ([Mahoney et al., 2004]) and wells were blocked with 0.2% gelatin in PBS (1 hour, 37°C). Wells were washed in PBS containing 0.1% Tween 20 after this and every subsequent step. Purified FLAG-tagged human TIMP-3 (0.4–50 nM) in blocking solution was applied to wells (3 hours, 37°C), and binding was detected with anti-FLAG M2 primary antibody and anti-mouse horseradish peroxidase–conjugated secondary antibody. 3,3′,5,5′-Tetramethylbenzidine (Becton Dickinson, Swindon, UK) substrate was added, the reaction was stopped when appropriate by adding 2 N H2SO4, and absorbance at 450 nm was measured using a FLUOstar Omega microplate reader (BMG Labtech, Aylesbury, Buckinghamshire, UK). Data (mean ± S.E., n = 3 technical repeats) were analyzed using Prism 7.0b software (GraphPad Software, La Jolla, CA) and EC50 values determined using a one-site specific binding model. Flat planar dimensions of suramin analogs were estimated using ICM-Pro software (Molsoft LLC, San Diego, CA).

[2] = tested on: primary chondrocytes isolated from human OA cartilage; assay: Accumulation of endogenous TIMP-3 in medium of human OA chondrocytes; assay type: cell-based; settings: suramin 0–250 µg/ml, 48 hours
Experimental: (§1) Cells (HTB94 chondrosarcoma cells, primary porcine chondrocytes, or human osteoarthritic chondrocytes) were plated overnight (6 × 10^5 cells per well of a 12-well plate) in DMEM containing 10% FCS and washed three times in serum-free DMEM. […] Media were harvested, precipitated with trichloroacetic acid, and analyzed by immunoblotting using a rabbit anti–TIMP-3 polyclonal antibody (AB6000; Millipore, Hertfordshire, UK) and an alkaline phosphatase–conjugated anti-rabbit secondary antibody (Promega). TIMP-3 in the medium (mean ± S.D., n = 3) was calculated relative to the pixel volume of untreated cells (defined as 1).

[3] = tested on: primary chondrocytes isolated from normal porcine cartilage; assay: Accumulation of endogenous TIMP-3 in medium of porcine chondrocytes; assay type: cell-based; settings: suramin 0–250 µg/ml, 48 hours
Experimental: as §1

[4] = tested on: TIMP-3 mRNA; assay: TIMP-3 mRNA analysis in HTB94 cells (quantitative PCR); assay type: cell-based; settings: suramin 0–250 µg/ml, 18 hours
Experimental: (§2) HTB94 chondrosarcoma cells or primary human chondrocytes (1 × 10^6 cells) were treated in triplicate with 0–250 µg/ml suramin in serum-free DMEM for 18–48 hours. Total RNA was isolated from cells using an RNeasy mini kit (Qiagen, Crawley, UK) and cDNA was synthesized (reverse transcriptase kit; Applied Biosystems, Foster City, CA). Levels of TIMP-1, TIMP-2, TIMP-3, LRP1, and RPLP0 internal reference mRNA were quantified by real-time polymerase […] chain reaction on a Corbett Rotor-Gene 6000 (Corbett Life Science, Mortlake, NSW, Australia) using TaqMan Fast Universal PCR Master Mix (Applied Biosystems) and TaqMan probes (Applied Biosystems) Hs01092512_g1 for TIMP-1, Hs00234278_m1 for TIMP-2, Hs00165949_m1 for TIMP-3, Hs00233856_m1 for LRP1, and Hs99999902_m1 for RPLP0. The ΔΔ threshold cycle values (mean ± S.D., n = 3 technical replicates) are shown relative to control untreated HTB94 cells (defined as 1).

[5] = tested on: TIMP-1 mRNA; assay: TIMP-1 mRNA analysis in HTB94 cells (quantitative PCR); assay type: cell-based; settings: suramin 0–250 µg/ml, 18 hours
Experimental: as §2

[6] = tested on: TIMP-2 mRNA; assay: TIMP-2 mRNA analysis in HTB94 cells (quantitative PCR); assay type: cell-based; settings: suramin 0–250 µg/ml, 18 hours
Experimental: as §2

[7] = tested on: LRP1 mRNA; assay: LRP1 mRNA analysis in HTB94 cells (quantitative PCR); assay type: cell-based; settings: 18 hours
Experimental: as §2

[8] = tested on: HTB94 chondrosarcoma cells; assay: Cell viability assay (MTS), HTB94 cells; assay type: cell-based; settings: suramin 0–250 µg/ml, 72 hours
Experimental: HTB94 chondrosarcoma cells or human OA chondrocytes (10^3 cells per well in 96-well plates) were plated overnight in DMEM with 10% FCS. Cells were washed in serum-free cartilage medium and treated for 48–72 hours with suramin (0–250 µg/ml) or sodium nitroprusside (10 mM) as a control to induce cell death. Cell viability was then assessed using the 3-(4,5-dimethylthiazol-2-yl)-5-(3-carboxymethoxyphenyl)-2-(4-sulfophenyl)-2H-tetrazolium CellTiter Cell Proliferation Assay (Promega) according to the manufacturer’s instructions (mean ± S.D., n = 3).

[9] = tested on: porcine cartilage explants; assay: Aggrecan release from porcine cartilage explants (DMMB assay, neo-epitope immunoblotting); assay type: cell-based
Experimental: The effects of suramin on cartilage degradation were assessed using porcine or human cartilage explants. Explants were rested for 48 hours after dissection and were washed with serum-free DMEM. […]
Aggrecan degradation was analyzed by quantifying aggrecan fragments released into the conditioned media using the dimethylmethylene blue (DMMB) dye-binding assay ([Farndale et al., 1986]) (mean ± S.D., n = 3) and by immunoblotting with neo-epitope antibodies that recognize ADAMTS-cleaved but not intact aggrecan. For immunoblotting, conditioned media were deglycosylated by adding an equal volume of 200 mM sodium acetate and 50 mM Tris/HCl, pH 6.8, containing chondroitinase and β-endoglycosidase (0.05 U each; 18 hours, 37°C; Sigma-Aldrich). Aggrecan fragments were precipitated by adding five volumes of ice-cold acetone (18 hours, −20°C). After centrifugation (13,000 rpm, 10 minutes, 4°C), pellets were resuspended in SDS sample buffer, separated by electrophoresis on a 6% (v/v) polyacrylamide gel, and blotted onto polyvinylidene fluoride. Membranes were blocked with 5% (m/v) BSA in Tris-buffered saline and incubated with either a rabbit antibody that recognizes the AGEG neo-epitope generated by ADAMTS cleavage of the TAQE^1771∼^1772AGEG bond of aggrecan ([Troeberg et al., 2008]) or a mouse antibody that recognizes the ARGSV neo-epitope generated by ADAMTS cleavage of the NITEGE^373∼^374ARGSV bond ([Hughes et al., 1995]).

[10] = tested on: MMP-9; design: method as in Taniguti et al., 2012; settings: ref Taniguti et al., 2012; cited from earlier work

Cc1ccc(C(=O)Nc2ccc(S(=O)(=O)O)c3cc(S(=O)(=O)O)cc(S(=O)(=O)O)c23)cc1NC(=O)c1cccc(NC(=O)Nc2cccc(C(=O)Nc3cc(C(=O)Nc4ccc(S(=O)(=O)O)c5cc(S(=O)(=O)O)cc(S(=O)(=O)O)c45)ccc3C)c2)c1 [suramin]
EC50 ([1]; plates coated with 10 µg/ml compound, one-site specific binding model, mean ± S.E., n = 3): 1.9 ± 0.21 nM
Kd ([1]; solid-phase binding assay, plates coated 10 µg/ml, read-out: KD value for TIMP-3 binding to immobilized compound): 1.9 ± 0.2 nM
endocytosis of endogenously expressed TIMP-3 [2]: inhibited endocytosis
endocytosis of endogenously expressed TIMP-3 [3]: inhibited endocytosis
TIMP-3 mRNA levels [4]: not associated with any significant change
TIMP-1 mRNA levels [5]: no effect
TIMP-2 mRNA levels [6]: no effect
increase in expression of LRP1 mRNA ([7]; suramin 250 µg/ml): 3 fold
expression of LRP1 mRNA ([7]; suramin up to 200 µg/ml): unaffected
cell viability (MTS) [8]: no effect
IC50 ([9]; Sus scrofa, 48 h, porcine cartilage explants, retinoic acid 1 µM, 48 hours, DMMB assay, read-out: IC50 for inhibition of aggrecan release): 98 ± 9 µg/mL (≈ 75.5 µM)
aggrecan release ([9]; porcine cartilage explants stimulated with IL-1 10 ng/ml or retinoic acid 1 µM, 48 hours, DMMB assay): effectively inhibited
aggrecan degradation at ADAMTS-susceptible NITEGE373∼374ARGSV and TAQE1771∼1772AGEG sites (neo-epitope immunoblotting) ([9]; porcine cartilage explants, retinoic acid 1 µM, 48 hours): inhibited
aggrecan degradation ([9]; porcine cartilage, retinoic acid 1 µM, 30 hours, with anti–TIMP-3 antibody MAB973 50 µg/ml): unable to inhibit
aggrecan release ([9]; porcine cartilage, retinoic acid 1 µM, 30 hours, with isotype control antibody 50 µg/ml): significantly inhibited
MMP-9 activity [10]: inhibit MMP-9 activity
